According to patent publication US5663331A, “Cephalosporin compounds” (Il-Dong Pharm. Co., Ltd., priority 1992, dated 1997):
Values after ≈ are worked out from the molar mass of the structure shown.

Assays:
Type in all cases: cell-based
[1] = system: Staphylococcus epidermidis ATCC 12228; test: MIC, two-fold dilution method, Staphylococcus epidermidis ATCC 12228; details: 10^6 CFU per ml, 37° C., 18 to 20 hours; for MIC: ATCC12228, Muller Hinton Broth, read-out: Antibacterial Activity (MIC); for Antibacterial Activity (MIC): Muller Hinton Broth
Experimental: (§1) In order to illustrate the usefulness of the invented compounds, the minimal inhibitory concentrations-(MIC) thereof against standard strains were determined and compared with Cefotaxime, a known compound. Also, the in vitro antibacterial activity was determined by a two-fold dilution method as described below: That is, the two-fold serial dilutions of the compound were made and dispersed in Muller Hinton Broth medium. Standard test strain which had the 10^6 CFU per ml was inoculated on the medium, and was incubated at 37° C. for 18 to 20 hours.

[2] = system: Klebsiella pneumoniae ATCC 10031; test: MIC, two-fold dilution method, Klebsiella pneumoniae ATCC 10031; details: 10^6 CFU per ml, 37° C., 18 to 20 hours; for MIC: ATCC10031, Muller Hinton Broth, read-out: Antibacterial Activity (MIC); for Antibacterial Activity (MIC): Muller Hinton Broth
Experimental: as §1

[3] = system: Streptococcus faecalis ATCC 10541; test: MIC, two-fold dilution method, Streptococcus faecalis ATCC 10541; details: 10^6 CFU per ml, 37° C., 18 to 20 hours; for MIC: Enterococcus faecalis, ATCC10541, Muller Hinton Broth, read-out: Antibacterial Activity (MIC); for Antibacterial Activity (MIC): Muller Hinton Broth
Experimental: as §1

[4] = system: Esherichia coli ATCC 25922; test: MIC, two-fold dilution method, Esherichia coli ATCC 25922; details: Muller Hinton Broth, 10^6 CFU per ml, 37° C., 18 to 20 hours; for MIC: read-out: Antibacterial Activity (MIC)
Experimental: as §1

[5] = system: Pseudomonas aeurginosa NCTC 10490; test: MIC, two-fold dilution method, Pseudomonas aeurginosa NCTC 10490; details: 10^6 CFU per ml, 37° C., 18 to 20 hours; for MIC: NCTC10490, Muller Hinton Broth, read-out: Antibacterial Activity (MIC); for Antibacterial Activity (MIC): Muller Hinton Broth
Experimental: as §1

[6] = system: Staphylococcus aureus ATCC 65389; test: MIC, two-fold dilution method, Staphylococcus aureus ATCC 65389; details: 10^6 CFU per ml, 37° C., 18 to 20 hours; for MIC: ATCC65389, Muller Hinton Broth, read-out: Antibacterial Activity (MIC); for Antibacterial Activity (MIC): Muller Hinton Broth
Experimental: as §1

[7] = system: Bacillus subtilis ATCC 6633; test: MIC, two-fold dilution method, Bacillus subtilis ATCC 6633; details: 10^6 CFU per ml, 37° C., 18 to 20 hours; for MIC: ATCC6633, Muller Hinton Broth, read-out: Antibacterial Activity (MIC); for Antibacterial Activity (MIC): Muller Hinton Broth
Experimental: as §1

Row | SMILES | MIC [1] [µg/mL] | MIC [2] [µg/mL] | MIC [3] [µg/mL] | MIC [4] [µg/mL] | MIC [5] [µg/mL] | MIC [6] [µg/mL] | MIC [7] [µg/mL] | Antibacterial Activity (MIC) [1] [µg/mL] | Antibacterial Activity (MIC) [2] [µg/mL] | Antibacterial Activity (MIC) [3] [µg/mL] | Antibacterial Activity (MIC) [4] [µg/mL] | Antibacterial Activity (MIC) [5] [µg/mL] | Antibacterial Activity (MIC) [6] [µg/mL] | Antibacterial Activity (MIC) [7] [µg/mL]
1 | C=CCO/N=C(\C(=O)NC1C(=O)N2C(C(=O)[O-])=C(CSc3cc[n+](C4CC4)c4cc(N5CCN(C)CC5)c(F)cc34)CSC12)c1csc(N)n1 (centres unmarked) [Compound I-26, 7-[(Z)-2-(2-aminothiazol-4-yl)-2-(allyloxyimino)acetamido]-3-[1-cyclopropyl-6-fluoro-7-(N-methylpiperazinyl)quinolinium-4-yl]thiomethyl-3-cephem-4-carboxylate] | 1.56 (≈ 2.11 µM) | 0.2 (≈ 0.271 µM) | 0.2 (≈ 0.271 µM) | 6.25 (≈ 8.46 µM) | 0.39 (≈ 0.528 µM) | 0.39 (≈ 0.528 µM) | 0.1 (≈ 0.135 µM) | – | – | – | – | – | – | –
2 | C=CCO/N=C(\C(=O)NC1C(=O)N2C(C(=O)[O-])=C(CSc3cc[n+](CC=C)c4cc(N5CCN(C)CC5)c(F)cc34)CSC12)c1csc(N)n1 (centres unmarked) [Compound I-34, 7-[(Z)-2-(2-aminothiazol-4-yl)-2-(allyloxyimino)acetamido]-3-[1-allyl-6-fluoro-7-(N-methylpiperazinyl)quinolinium-4-yl]thiomethyl-3-cephem-4-carboxylate] | 1.56 (≈ 2.11 µM) | 1.56 (≈ 2.11 µM) | 0.78 (≈ 1.06 µM) | 3.13 (≈ 4.24 µM) | 6.25 (≈ 8.46 µM) | 1.56 (≈ 2.11 µM) | 0.78 (≈ 1.06 µM) | – | – | – | – | – | – | –
3 | CO/N=C(\C(=O)NC1C(=O)N2C(C(=O)[O-])=C(CSc3cc[n+](C)c4cc(N5CCNCC5C)c(F)cc34)CSC12)c1csc(N)n1 (centres unmarked) [Compound I-4, 7-[(Z)-2-(2-aminothiazol-4-yl)-2-(methoxyimino)acetamido]-3-(1-methyl-6-fluoro-7-(2-methyl)piperazinylquinolinium-4-yl]thiomethyl-3-cephem-4-carboxylate] | – | – | – | – | – | – | – | 0.2 | 0.1 | 0.05 | 0.78 | 0.78 | 0.1 | 0.1
4 | CO/N=C(\C(=O)NC1C(=O)N2C(C(=O)[O-])=C(CSc3cc[n+](C4CC4)c4cc(-n5cnc(C)c5)c(F)cc34)CSC12)c1csc(N)n1 (centres unmarked) [Compound I-20, 7-[(Z)-2-(2-aminothiazol-4-yl)-2-(methoxyimino)acetamido]-3-[1-cyclopropyl-6-fluoro-7-(4-methylimidazolyl)quinolinium-4-yl]thiomethyl-3-cephem-4-carboxylate] | – | – | – | – | – | – | – | 0.39 | 0.1 | 0.2 | 1.56 | 1.56 | 0.78 | 0.2
5 | CCN1CCN(c2cc3c(cc2F)c(SCC2=C(C(=O)[O-])N4C(=O)C(NC(=O)/C(=N\OC)c5csc(N)n5)C4SC2)cc[n+]3C)CC1 (centres unmarked) [Compound I-3, 7-[(Z)-2-(2-aminothiazol-4-yl)-2-(methoxyimino)acetamido]-3-[1-methyl-6-fluoro-7-(1-ethylpiperazinyl)quinolinium-4-yl]thiomethyl-3-cephem-4-carboxylate] | 0.1 (≈ 0.143 µM) | 0.1 (≈ 0.143 µM) | 0.025 (≈ 0.0357 µM) | 0.78 (≈ 1.11 µM) | 0.78 (≈ 1.11 µM) | 0.05 (≈ 0.0713 µM) | 0.2 (≈ 0.285 µM) | – | – | – | – | – | – | –
6 | C=CCO/N=C(\C(=O)NC1C(=O)N2C(C(=O)[O-])=C(CSc3cc[n+](C)c4cc(N5CCNCC5C)c(F)cc34)CS[C@H]12)c1csc(N)n1 (some centres unmarked) [Compound I-24, 7-[(Z)-2-(2-aminothiazol-4-yl)-2-(allyloxyimino)acetamido]-3-[1-methyl-6-fluoro-7-(2-methylpiperazinyl)quinolinium-4-yl]thiomethyl-3-cephem-4-carboxylate] | – | – | – | – | – | – | – | 0.1 | 0.2 | 0.1 | 1.56 | 0.78 | 0.1 | 0.2

Next, values leading:

Row | MIC [1] [µg/mL] | MIC [2] [µg/mL] | MIC [3] [µg/mL] | MIC [4] [µg/mL] | MIC [5] [µg/mL] | MIC [6] [µg/mL] | MIC [7] [µg/mL] | Antibacterial Activity (MIC) [1] [µg/mL] | Antibacterial Activity (MIC) [2] [µg/mL] | Antibacterial Activity (MIC) [3] [µg/mL] | Antibacterial Activity (MIC) [4] [µg/mL] | Antibacterial Activity (MIC) [5] [µg/mL] | Antibacterial Activity (MIC) [6] [µg/mL] | Antibacterial Activity (MIC) [7] [µg/mL] | SMILES
7 | 1.56 (≈ 2.08 µM) | 0.78 (≈ 1.04 µM) | 1.56 (≈ 2.08 µM) | 0.78 (≈ 1.04 µM) | 1.56 (≈ 2.08 µM) | 3.13 (≈ 4.17 µM) | 0.78 (≈ 1.04 µM) | – | – | – | – | – | – | – | C#CCO/N=C(\C(=O)NC1C(=O)N2C(C(=O)[O-])=C(CSc3cc[n+](CC=C)c4cc(N5CCN(CC)CC5)c(F)cc34)CSC12)c1csc(N)n1 (centres unmarked) [Compound I-51, 7-[(Z)-2-(2-aminothiazol-4-yl)-2-(propargyloxyimino)acetamido]-3-[1-allyl-6-fluoro-7-(1-ethylpiperazinyl)quinolinium-4-yl]thiomethyl-3-cephem-4-carboxylate]
8 | 0.78 (≈ 1.12 µM) | 0.1 (≈ 0.143 µM) | 0.39 (≈ 0.558 µM) | 12.5 (≈ 17.9 µM) | 3.13 (≈ 4.48 µM) | 1.56 (≈ 2.23 µM) | 0.39 (≈ 0.558 µM) | – | – | – | – | – | – | – | CO/N=C(\C(=O)NC1C(=O)N2C(C(=O)[O-])=C(CSc3cc[n+](C4CC4)c4cc(N5CCNCC5)c(F)cc34)CS[C@H]12)c1csc(N)n1 (some centres unmarked) [Compound I-5, 7-[(Z)-2-(2-aminothiazol-4-yl)-2-(methoxyimino)acetamido]-3-(1-cyclopropyl-6-fluoro-7-piperazinylquinolinium-4-yl)thiomethyl-3-cephem-4-carboxylate]
9 | 6.25 (≈ 8.11 µM) | 0.39 (≈ 0.506 µM) | 1.56 (≈ 2.02 µM) | 0.78 (≈ 1.01 µM) | 0.78 (≈ 1.01 µM) | 6.25 (≈ 8.11 µM) | 0.78 (≈ 1.01 µM) | – | – | – | – | – | – | – | CC(C)(O/N=C(\C(=O)NC1C(=O)N2C(C(=O)[O-])=C(CSc3cc[n+](C4CC4)c4cc(N5CCNCC5)c(F)cc34)CS[C@H]12)c1csc(N)n1)C(=O)O (some centres unmarked) [Compound I-57, 7-[(Z)-2-(2-aminothiazol-4-yl)-2-(2-carboxyprop-2-oxyimino)acetamido]-3-(1-cyclopropyl-6-fluoro-7-piperazinylquinolinium-4-yl)thiomethyl-3-cephem-4-carboxylate]
10 | 1.56 (≈ 2.15 µM) | 1.56 (≈ 2.15 µM) | 0.39 (≈ 0.538 µM) | 3.13 (≈ 4.32 µM) | 3.13 (≈ 4.32 µM) | 0.78 (≈ 1.08 µM) | 0.78 (≈ 1.08 µM) | – | – | – | – | – | – | – | C=CCO/N=C(\C(=O)NC1C(=O)N2C(C(=O)[O-])=C(CSc3cc[n+](CC=C)c4cc(N5CCNCC5)c(F)cc34)CS[C@H]12)c1csc(N)n1 (some centres unmarked) [Compound I-33, 7-[(Z)-2-(2-aminothiazol-4-yl)-2-(allyloxyimino)acetamido]-3-(1-allyl-6-fluoro-7-piperazinylquinolinium-4-yl)thiomethyl-3-cephem-4-carboxylate]
11 | 0.78 (≈ 1.05 µM) | 0.39 (≈ 0.526 µM) | 0.39 (≈ 0.526 µM) | 0.78 (≈ 1.05 µM) | 0.78 (≈ 1.05 µM) | 0.39 (≈ 0.526 µM) | 0.2 (≈ 0.27 µM) | – | – | – | – | – | – | – | C=CCO/N=C(\C(=O)NC1C(=O)N2C(C(=O)[O-])=C(CSc3cc[n+](CC)c4cc(N5CCN(CC)CC5)c(F)cc34)CSC12)c1csc(N)n1 (centres unmarked) [Compound I-31]
12 | 0.1 (≈ 0.149 µM) | 0.2 (≈ 0.297 µM) | 0.05 (≈ 0.0743 µM) | 0.78 (≈ 1.16 µM) | 1.56 (≈ 2.32 µM) | 0.2 (≈ 0.297 µM) | 0.2 (≈ 0.297 µM) | – | – | – | – | – | – | – | CO/N=C(\C(=O)NC1C(=O)N2C(C(=O)[O-])=C(CSc3cc[n+](C)c4cc(N5CCNCC5)c(F)cc34)CSC12)c1csc(N)n1 (centres unmarked) [Compound I-1, 7-[(Z)-2-(2-aminothiazol-4-yl)-2-(methoxyimino)acetamide]-3-(1-methyl-6-fluoro-7-piperazinylquinolinium-4-yl)thiomethyl-3-cephem-4-carboxylate]
13 | 0.78 (≈ 1.06 µM) | 3.13 (≈ 4.25 µM) | 0.39 (≈ 0.529 µM) | 3.13 (≈ 4.25 µM) | 3.13 (≈ 4.25 µM) | 0.78 (≈ 1.06 µM) | 0.2 (≈ 0.271 µM) | – | – | – | – | – | – | – | C#CCO/N=C(\C(=O)NC1C(=O)N2C(C(=O)[O-])=C(CSc3cc[n+](C4CC4)c4cc(N5CCN(C)CC5)c(F)cc34)CSC12)c1csc(N)n1 (centres unmarked) [Compound I-42, 7-[(Z)-2-(2-aminothiazol-4-yl)-2-(propargyloxyimino)acetamido]-3-[1-cyclopropyl-6-fluoro-7-(N-methylpiperazinyl)quinolinium-4-yl]thiomethyl-3-cephem-4-carboxylate]
14 | – | – | – | – | – | – | – | 1.56 | 1.56 | 0.39 | 1.56 | 3.13 | 3.13 | 1.56 | C=CC[n+]1ccc(SCC2=C(C(=O)[O-])N3C(=O)C(NC(=O)/C(=N\OC(C)(C)C(=O)O)c4csc(N)n4)[C@H]3SC2)c2cc(F)c(N3CCNCC3C)cc21 (some centres unmarked) [Compound I-64, 7-[(Z)-2-(2-aminothiazol-4-yl)-2-(2-carboxyprop-2-oxyimino)acetamido]-3-[1-allyl-6-fluoro-7-(2-methylpiperazinyl)quinolinium-4-yl]thiomethyl-3-cephem-4-carboxylate]
